The source of these data is US20040192641A1, “Special preparation of anticancer drugs made by novel nanotechnology” (priority 2003, published 2004).

The subject of data set [1] is tumor-bearing mice. Briefly: Survival time of tumor-bearing mice (ELE, CPT). As to conditions: mouse, in vivo. The text has this:
(§1) The acceptable criterion for determining the anti-tumor efficacy of the formulation over the free ELE and PK-ELE-NP are the determination of the life span prolongation.
(§2) The number of dead cells in the peritoneal fluid of mice treated with PK-ELE-NP formulation increased life span when compared to free ELE.
(§3) The acceptable criterion for determining the anti-tumor efficacy of the formulation over the free drug and PK-CPT-NP are the determination of the life span prolongation. The number of dead cells in the peritoneal fluid of mice treated with PK-CPT-NP formulation increased life span when compared to free CPT.

Data set [2] has as its system tumor cells. In words: Stained dead tumor cells in peritoneal fluid of tumor-bearing mice (ELE, CPT). The data set is classed as in vivo. As to conditions: 12th day of tumor inoculation.
Source text: as §1, §2, §3

Data set [3] can be described thus: Subacute toxicity test. The settings on record: 50 times the clinical dose, continually for two months. The data set is classed as in vivo.
The test system of data set [4] is Human leukemia cells (HL-60). Briefly: Apoptosis of cancer cells (HL-60). The data set is classed as cell-based. As to the method:
Human leukemia cells (HL-60) were grown in RPMI Medium 1640 supplemented with 10% (v/v) heat-inactivated FBS (56° C. for 30 min) at 37° C. in a humidified 95% air/5% CO2 atmosphere. Cells were seeded at a level of 2×10^5 cells/ml. Cells were allowed to attain a maximum density of 1.2×10^6 cells/ml before being passed by dilution into fresh medium to a concentration of 2×10^5 cells/ml.
Apoptosis determined by the following process: Cell pellets containing 5×10^6 cells were fixed with 2.5% glutaraldehyde in cacodylate buffer (pH 7.4), dehydrated through graded alcohol, and infiltrated with LX-112 epoxy resin. After overnight polymerization at 60° C. 1-μm sections were cut with glass knives using a LKB Nova microtome. The sections were stained with 1% toluidine blue and coverslipped.
DNA electrophoresis: Untreated and treated HL-60 cells collected by centrifugation, washed in phosphate buffered saline and re-suspended at a concentration of 5×10^6 cells and 0.1% RNase A. The mixture was incubated at 37° C. for 30 min and then incubated for an additional 30 min at 37° C. with 1 ml protease K. Buffer was added and 25 μl of the tube content transferred to the Horizontal 1.5% agarose gel electrophoresis was performed at 2 V/cm. DNA in gels visualized under UV light after staining with ethidium Bromide (5 μg/ml).
DNA fragmentation assays: DNA cleavage was performed, quantitation of fractional solubilized DNA by diphenylamine assay and the percentage of cells harboring fragmented DNA determined by in labeling techniques. For the diphenylamine assay, 5×10^6 cells were lysed in 0.5 mL lysis buffer (5 mmol/L Tris-HCl, 20 mmol/L DTA, and 0.5% Triton X-100, pH 8.0) at 4° C. Lysates were centrifuged (15,000 g) for separation of high molecular weight DNA (pellet) and DNA cleavage products (supernatant). DNA was precipitated with 0.5 N perchloric acid and quantitated using diphenylamine reagent. The cell cycle distribution was determined 4 hours after addition of drug and represents mean±SD of 5 independent experiments.
Human promyelocytic leukemia cells (HL-60) were grown in RPMI Medium 1640 supplemented with 10% (v/v) heat-inactivated FBS (56° C. for 30 min) at 37° C. in a humidified 95% air/5% CO2 atmosphere. Cells were seeded at a level of 2×10^5 cells/ml. Cells were allowed to attain a maximum density of 1.2×10^6 cells/ml before being passed by dilution into fresh medium to a concentration of 2×10^5 cells/ml. Apoptosis determined by the following process: Cell pellets containing 5×10^6 cells ere fixed with 2.5% glutaraldehyde in cacodylate buffer (pH 7.4), dehydrated through graded alcohol, and infiltrated with LX-112 epoxy resin. After overnight polymerization at 60° C. 1-μm sections were cut with glass knives using a LKB Nova microtome. The sections were stained with 1% toluidine blue and coverslipped. […]
DNA fragmentation assays: DNA cleavage was performed, quantitation of fractional solubilized DNA by diphenylamine assay and the percentage of cells harboring fragmented DNA determined by in labeling techniques. […] DNA was precipitated with 0.5N perchloric acid and quantitated using diphenylamine reagent. […]

The subject of data set [5] is Walker 256. Briefly: Growth of transplanted tumor, Walker 256 (tumor weight). The data set is classed as in vivo, mice. As to conditions: 20 mg/kg i.p. from second day, tumor weight on 12th day. As for the experimental part: Male mice, weight 20-22 g, were used in the experiment. 1×10^7 tumor cells were injected to mouse and PK-HHT-NP injected intraperitoneally began second day. All mice were sacrificed on the 12th days, isolated the tumor and weighed and calculated the inhibition rate of tumor weight.
Male mice, weight 20-22 g, were used in the experiment. 1×10^7 tumor cells were injected to mouse and CUR and PK-CUR-NP injected intraperitoneally began second day. All mice were sacrificed on the 12th days, isolated the tumor and weighed and calculated the inhibition rate of tumor weight.
Male mice, weight 20-22 g, were used in the experiment. 1×10^7 tumor cells were injected to mouse and ELE injected intraperitoneally began second day. All mice were sacrificed on the 12th days, isolated the tumor and weighed and calculated the inhibition rate of tumor weight.
Male mice, weight 20-22 g, were used in the experiment. 1×10^7 tumor cells were injected to mouse and CPT injected intraperitoneally began second day. All mice were sacrificed on the 12th days, isolated the tumor and weighed and calculated the inhibition rate of tumor weight.

Data set [6] has as its system gastric cancer cells. Briefly: Differentiation of gastric cancer cells. The data set is classed as cell-based. As to the method:
The gastric cancer cells and normal cells were cultured in PRMI 1640 medium supplement with 10% FCS serum. Other method is similar to example 1.

Marks after values point to notes of the source that are not given here.

Consider `CC[C@@]1(O)C(=O)OCc2c1cc1n(c2=O)Cc2cc3ccccc3nc2-1` [CPT, Camptothecin], for which, in data set [1], the “Increase in life span T/C (%)” value turned out to be 144.3% and the “MST” value was found to be 33 ± 4.5 days. In addition, the “Number of stained dead tumor cells (1 × 10^6 cells mL^−1)” value in data set [2] is listed as 5.36 ± 0.95 1 × 10^6 cells mL^−1. In addition, the “subacute toxicity: side effects” value in data set [3] is given as “no side effects had been observed”. Moreover, the “Apoptosis (%)” value in data set [4] (concentration not given) is listed as 65.8 ± 9.8%. Besides, the “Inhibition (%) of transplanted tumor” value in data set [5] came to 71.8 ± 10.4%.
Regarding `C=C1C[C@@]2(O)O[C@@]3(C[C@H]2C(C)C)[C@@H](C)CC[C@@H]13` [CUR, Curcumol], in data set [3], the “subacute toxicity: side effects” value is “no side effects had been observed”. In addition, the “Apoptosis (%)” value in data set [4] (concentration not given) was 68.3 ± 7.8%. In addition, the “Inhibition (%) of transplanted tumor” value in data set [5] was 59.8 ± 8.5%.
For the molecule `COC(=O)C[C@](O)(CCCC(C)(C)O)C(=O)O[C@@H]1C(OC)=C[C@]23CCCN2CCc2cc4c(cc2[C@H]13)OCO4` [HHT, Homoharringtonine], in data set [6], the “NBT (%)” value was 58* % and the “NSE (%)” value is given as 60* %. For the same molecule, in data set [4] (Concentration 20 μm), the “Apoptosis (%)” value was determined as 68.3 ± 7.6%. The “Apoptosis (%)” value in data set [4] (Example 59) was 68.3 ± 7.6%. Besides, the “Inhibition (%) of transplanted tumor” value in data set [5] is recorded as 83 ± 9%.
Regarding Eelemene, in data set [1], the “Increase in life span T/C (%)” value turned out to be 144.3% and the “MST” value turned out to be 33.2 days. Besides, in data set [2], the “Number of stained dead tumor cells (1 × 10^6 cells mL^−1)” value was 5.80 ± 0.80 1 × 10^6 cells mL^−1. For the same molecule, in data set [3], the “subacute toxicity: side effects” value is recorded as “no side effects had been observed”. Further, in data set [4] (concentration not given), the “Apoptosis (%)” value is given as 69.2 ± 9.1%. Moreover, the “Inhibition (%) of transplanted tumor” value in data set [5] came to 60.8 ± 8.9%.
